pIC50: −log10 of the molar value. Like-named read-outs stand apart in the source and are kept apart here.
Key:
[1] = system: MV-4-11; test: Tumor cell proliferation inhibition (CellTiter-Meiluncell Luminescent Cell Viability Assay), MV-4-11; conditions: Homo sapiens, MV4-11, read-out: inhibitory activity (IC50, nM) against tumor cells proliferation, MV-4-11
Method: (§1) The tumor cells used herein were cultured in a cell culture medium listed in table 2 at 37°C in an incubator with 5% CO2. Prior to experimentation, all cell lines used were correctly identified by STR profiling, and tested negative for mycoplasma contamination using a mycoplasma detection kit through routine screenings.
(§2) On the following day, the test compounds of the present disclosure were subjected to serial dilution. […] Subsequently, 0.5 µL of the test compound dilution was transferred into the 96-well plate containing the cells, with each well containing 100 µL of cell culture medium. […] Into the 96-well plate, the diluted test compounds and corresponding detection reagents were added, resulting in final test compound concentrations of 500 nM and 10 nM, respectively.
(§3) After the cells were treated with the compounds of the present disclosure for a specified period (the treatment durations were shown in Table 3), the cell viability assay reagent was added to the culture medium according to the kit's instructions to determine cell viability. […] All controls were treated using the same procedure as the compounds of the present disclosure. The growth inhibition curves for the compounds of the present disclosure were plotted using Prism GraphPad software, and the IC50 values were calculated therefrom.

[2] = target: T1, WEE1 (Homo sapiens, UniProt P30291+Q96SW2); test: Western-blot assay of substrate protein degradation in hPBMCs, WEE1; assay type: cell-based; conditions: 24 hours of compound treatment, 50 nM and 500 nM tested (concentration behind the class not stated)
T1 construct: endogenous in cells; host or cells: hPBMCs (Milecell Biotechnologies)

[3] = system: Human acute T lymphocytic leukemia cells (Molt-4); test: Tumor cell proliferation inhibition (CellTiter-Meiluncell Luminescent Cell Viability Assay), Molt-4; conditions: for inhibition at 0.01 µM: MOLT-4, read-out: Inhibition rate (%) at 10 nM; for inhibition at 0.5 µM: MOLT-4, read-out: Inhibition rate (%) at 500 nM
Method: as §1
(§4) On the following day, the test compounds of the present disclosure were subjected to serial dilution. […] Subsequently, 0.5 µL of the test compound dilution was transferred into the 96-well plate containing the cells, with each well containing 100 µL of cell culture medium. […] Into the 96-well plate, the diluted test compounds and corresponding detection reagents were added, resulting in final test compound concentrations of 500 nM and 10 nM, respectively. The experimental procedure is described below using the diluted 2 µM test compound as an example.
as §3

[4] = system: MM.1S; test: Tumor cell proliferation inhibition (CellTiter-Meiluncell Luminescent Cell Viability Assay), MM.1S; conditions: Homo sapiens, MM1.S, read-out: inhibitory activity (IC50, nM) against tumor cells proliferation, MM.1S
Method: as §1, §2, §3

[5] = system: NCI-H1975; test: Tumor cell proliferation inhibition (CellTiter-Meiluncell Luminescent Cell Viability Assay), NCI-H1975; conditions: Homo sapiens
[6] = target: T2, CK1α (Homo sapiens, UniProt P48729+Q96SW2); test: Western-blot assay of substrate protein degradation in hPBMCs, CK1α; assay type: cell-based; conditions: 24 hours of compound treatment, 50 nM and 500 nM tested (concentration behind the class not stated)
T2 construct: endogenous in cells; host or cells: hPBMCs (Milecell Biotechnologies)

[7] = system: Jurkat; test: Tumor cell proliferation inhibition (CellTiter-Meiluncell Luminescent Cell Viability Assay), Jurkat; conditions: Homo sapiens, read-out: inhibitory activity (IC50, nM) against tumor cells proliferation, Jurkat
[8] = target: T3, IKZF3 (Homo sapiens, UniProt Q96SW2+Q9UKT9); test: Western-blot assay of substrate protein degradation in hPBMCs, IKZF3; assay type: cell-based; conditions: 24 hours of compound treatment, 50 nM and 500 nM tested (concentration behind the class not stated)
T3 construct: endogenous in cells; host or cells: hPBMCs (Milecell Biotechnologies)

[9] = target: T4, human Cereblon WT GST-tagged protein (Homo sapiens, UniProt Q96SW2); test: CRBN-binding affinity by HTRF (CEREBLON BINDING kit); conditions: HTRF inhibitory activity, CEREBLON BINDING kit; read-out: HTRF IC50
T4 construct: purchased CISBIO 64BDCRBNPEH

[10] = target: T5, IKZF2 (Homo sapiens, UniProt Q96SW2+Q9UKS7); test: Western-blot assay of substrate protein degradation in hPBMCs, IKZF2; assay type: cell-based; conditions: 24 hours of compound treatment, 50 nM and 500 nM tested (concentration behind the class not stated)
T5 construct: endogenous in cells; host or cells: hPBMCs (Milecell Biotechnologies)

[11] = target: T6, GSPT1 (Homo sapiens, UniProt P15170+Q96SW2); test: Western-blot assay of substrate protein degradation in hPBMCs, GSPT1; assay type: cell-based; conditions: 24 hours of compound treatment, 50 nM and 500 nM tested (concentration behind the class not stated)
T6 construct: endogenous in cells; host or cells: hPBMCs (Milecell Biotechnologies)

[12] = system: CCRF-CEM; test: Tumor cell proliferation inhibition (CellTiter-Meiluncell Luminescent Cell Viability Assay), CCRF-CEM; conditions: Homo sapiens; for IC50: read-out: inhibitory activity (IC50, nM) against tumor cells proliferation, CCRF-CEM; for inhibition at 0.01 µM: read-out: Inhibition rate (%) at 10 nM; for inhibition at 0.5 µM: read-out: Inhibition rate (%) at 500 nM
[13] = target: T7, IKZF1 (Homo sapiens, UniProt Q13422+Q96SW2); test: Western-blot assay of substrate protein degradation in hPBMCs, IKZF1; assay type: cell-based; conditions: 24 hours of compound treatment, 50 nM and 500 nM tested (concentration behind the class not stated)
T7 construct: endogenous in cells; host or cells: hPBMCs (Milecell Biotechnologies)

[14] = system: SR; test: Tumor cell proliferation inhibition (CellTiter-Meiluncell Luminescent Cell Viability Assay), SR; conditions: Homo sapiens, read-out: inhibitory activity (IC50, nM) against tumor cells proliferation, SR
Method: as §1, §2, §3

[15] = system: TMD8; test: Tumor cell proliferation inhibition (CellTiter-Meiluncell Luminescent Cell Viability Assay), TMD8; conditions: Homo sapiens
Method: as §1, §4, §3

[16] = system: Kasumi-1; test: Tumor cell proliferation inhibition (CellTiter-Meiluncell Luminescent Cell Viability Assay), Kasumi-1; conditions: Homo sapiens; for inhibition at 0.01 µM: Kasumi 1, read-out: Inhibition rate (%) at 10 nM; for inhibition at 0.5 µM: Kasumi 1, read-out: Inhibition rate (%) at 500 nM
Method: as §4, §3

[17] = system: Human breast cancer cells (MDA-MB-231); test: Tumor cell proliferation inhibition (CellTiter-Meiluncell Luminescent Cell Viability Assay), MDA-MB-231; conditions: for inhibition at 0.01 µM: MDA-MB-231, read-out: Inhibition rate (%) at 10 nM; for inhibition at 0.5 µM: MDA-MB-231, read-out: Inhibition rate (%) at 500 nM
Method: as §1, §4, §3

[18] = system: MM.1R; test: Tumor cell proliferation inhibition (CellTiter-Meiluncell Luminescent Cell Viability Assay), MM.1R; conditions: Homo sapiens, 96 h, read-out: inhibitory activity (IC50, nM) against tumor cells proliferation, MM.1R
[19] = system: MGC803; test: Tumor cell proliferation inhibition (CellTiter-Meiluncell Luminescent Cell Viability Assay), MGC803; conditions: Homo sapiens, MGC-803, 96 h, read-out: inhibitory activity (IC50, nM) against tumor cells proliferation, MGC803
[20] = system: SW620; test: Tumor cell proliferation inhibition (CellTiter-Meiluncell Luminescent Cell Viability Assay), SW620; conditions: Homo sapiens, SW-620, 96 h, read-out: inhibitory activity (IC50, nM) against tumor cells proliferation, SW620
[21] = system: Vcap; test: Tumor cell proliferation inhibition (CellTiter-Meiluncell Luminescent Cell Viability Assay), Vcap; conditions: Homo sapiens, 96 h, read-out: inhibitory activity (IC50, nM) against tumor cells proliferation, Vcap
Method: as §1, §4, §3

[22] = system: CAL-62; test: Tumor cell proliferation inhibition (CellTiter-Meiluncell Luminescent Cell Viability Assay), CAL-62; conditions: Homo sapiens, CAL-62, 96 h, read-out: inhibitory activity (IC50, nM) against tumor cells proliferation, CAL-62
[23] = MOLT-4, read-out: inhibitory activity (IC50, nM) against tumor cells proliferation, Molt-4
[24] = NCI-H1975, read-out: inhibitory activity (IC50, nM) against tumor cells proliferation, H1975
[25] = TMD8, read-out: inhibitory activity (IC50, nM) against tumor cells proliferation, TMD8

T6 sequence (P15170 whole entry): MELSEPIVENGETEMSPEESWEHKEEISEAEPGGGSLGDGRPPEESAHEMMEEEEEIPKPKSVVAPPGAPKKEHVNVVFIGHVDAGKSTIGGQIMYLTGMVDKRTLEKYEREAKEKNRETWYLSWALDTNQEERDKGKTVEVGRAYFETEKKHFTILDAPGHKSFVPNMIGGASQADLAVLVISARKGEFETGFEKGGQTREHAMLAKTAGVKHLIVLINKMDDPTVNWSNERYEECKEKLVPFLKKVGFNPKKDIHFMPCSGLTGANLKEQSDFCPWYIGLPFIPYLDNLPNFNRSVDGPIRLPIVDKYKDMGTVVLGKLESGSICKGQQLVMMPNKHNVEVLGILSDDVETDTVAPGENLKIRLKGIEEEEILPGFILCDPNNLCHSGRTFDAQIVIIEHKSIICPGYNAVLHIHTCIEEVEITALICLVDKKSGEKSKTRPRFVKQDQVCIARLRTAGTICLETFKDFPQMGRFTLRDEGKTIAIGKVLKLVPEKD
T6 sequence (Q96SW2 whole entry): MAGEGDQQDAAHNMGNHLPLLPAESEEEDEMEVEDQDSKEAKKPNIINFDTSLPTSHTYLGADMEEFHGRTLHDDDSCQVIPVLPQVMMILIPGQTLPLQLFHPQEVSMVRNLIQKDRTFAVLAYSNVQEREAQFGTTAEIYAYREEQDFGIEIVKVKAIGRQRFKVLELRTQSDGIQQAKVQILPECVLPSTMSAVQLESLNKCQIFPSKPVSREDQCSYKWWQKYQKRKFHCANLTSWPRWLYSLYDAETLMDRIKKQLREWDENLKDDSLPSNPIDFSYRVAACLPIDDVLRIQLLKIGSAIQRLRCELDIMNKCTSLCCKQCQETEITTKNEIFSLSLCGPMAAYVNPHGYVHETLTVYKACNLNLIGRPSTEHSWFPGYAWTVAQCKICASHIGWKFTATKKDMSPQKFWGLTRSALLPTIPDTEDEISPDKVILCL
T6 sequence (Q16531 whole entry partner): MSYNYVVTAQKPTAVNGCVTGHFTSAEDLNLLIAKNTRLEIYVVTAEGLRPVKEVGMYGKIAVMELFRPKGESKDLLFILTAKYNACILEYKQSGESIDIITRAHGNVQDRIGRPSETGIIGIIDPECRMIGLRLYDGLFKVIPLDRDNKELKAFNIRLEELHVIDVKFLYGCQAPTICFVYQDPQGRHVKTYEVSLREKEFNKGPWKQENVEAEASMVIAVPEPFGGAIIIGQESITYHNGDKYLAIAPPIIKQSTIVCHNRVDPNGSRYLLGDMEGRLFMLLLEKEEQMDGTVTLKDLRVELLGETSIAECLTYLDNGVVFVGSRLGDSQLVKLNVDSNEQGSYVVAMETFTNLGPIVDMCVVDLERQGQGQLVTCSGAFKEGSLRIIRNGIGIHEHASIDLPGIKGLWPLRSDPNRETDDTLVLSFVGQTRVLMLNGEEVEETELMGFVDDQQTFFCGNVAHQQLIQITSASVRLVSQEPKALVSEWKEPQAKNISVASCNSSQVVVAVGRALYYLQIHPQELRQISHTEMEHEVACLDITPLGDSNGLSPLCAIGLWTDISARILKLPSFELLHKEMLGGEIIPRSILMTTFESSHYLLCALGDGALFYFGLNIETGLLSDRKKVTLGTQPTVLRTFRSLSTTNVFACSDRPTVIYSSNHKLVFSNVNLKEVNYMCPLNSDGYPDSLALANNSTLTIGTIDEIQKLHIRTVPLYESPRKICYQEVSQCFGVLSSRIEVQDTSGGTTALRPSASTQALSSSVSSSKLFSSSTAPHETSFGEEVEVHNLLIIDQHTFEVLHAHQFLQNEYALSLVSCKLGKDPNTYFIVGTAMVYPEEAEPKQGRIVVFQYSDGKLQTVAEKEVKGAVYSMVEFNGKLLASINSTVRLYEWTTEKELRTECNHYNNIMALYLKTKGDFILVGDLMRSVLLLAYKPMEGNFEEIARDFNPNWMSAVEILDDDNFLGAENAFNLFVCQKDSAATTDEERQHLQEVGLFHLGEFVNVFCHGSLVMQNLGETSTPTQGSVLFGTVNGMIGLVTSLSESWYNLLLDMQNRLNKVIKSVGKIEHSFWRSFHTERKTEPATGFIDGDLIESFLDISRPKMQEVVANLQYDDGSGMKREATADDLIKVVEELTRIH
T5 sequence (Q9UKS7 whole entry): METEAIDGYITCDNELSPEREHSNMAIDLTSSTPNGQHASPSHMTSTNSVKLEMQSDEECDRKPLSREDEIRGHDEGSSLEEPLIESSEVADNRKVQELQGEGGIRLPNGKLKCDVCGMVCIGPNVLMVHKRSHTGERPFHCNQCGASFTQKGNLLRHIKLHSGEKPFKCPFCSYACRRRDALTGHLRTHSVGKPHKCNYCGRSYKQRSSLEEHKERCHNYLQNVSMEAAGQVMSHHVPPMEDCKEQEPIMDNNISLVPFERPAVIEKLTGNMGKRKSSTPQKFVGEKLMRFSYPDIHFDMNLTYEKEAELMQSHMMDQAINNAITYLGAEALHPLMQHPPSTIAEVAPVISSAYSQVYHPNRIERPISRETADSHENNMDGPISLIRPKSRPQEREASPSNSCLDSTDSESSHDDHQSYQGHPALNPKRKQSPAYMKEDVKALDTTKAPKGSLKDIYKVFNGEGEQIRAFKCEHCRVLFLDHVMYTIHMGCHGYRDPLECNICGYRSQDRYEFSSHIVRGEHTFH
T5 sequence (Q96SW2 whole entry): as the sequence (Q96SW2 whole entry) above
T5 sequence (Q16531 whole entry partner): as the sequence (Q16531 whole entry partner) above
T1 sequence (P30291 whole entry): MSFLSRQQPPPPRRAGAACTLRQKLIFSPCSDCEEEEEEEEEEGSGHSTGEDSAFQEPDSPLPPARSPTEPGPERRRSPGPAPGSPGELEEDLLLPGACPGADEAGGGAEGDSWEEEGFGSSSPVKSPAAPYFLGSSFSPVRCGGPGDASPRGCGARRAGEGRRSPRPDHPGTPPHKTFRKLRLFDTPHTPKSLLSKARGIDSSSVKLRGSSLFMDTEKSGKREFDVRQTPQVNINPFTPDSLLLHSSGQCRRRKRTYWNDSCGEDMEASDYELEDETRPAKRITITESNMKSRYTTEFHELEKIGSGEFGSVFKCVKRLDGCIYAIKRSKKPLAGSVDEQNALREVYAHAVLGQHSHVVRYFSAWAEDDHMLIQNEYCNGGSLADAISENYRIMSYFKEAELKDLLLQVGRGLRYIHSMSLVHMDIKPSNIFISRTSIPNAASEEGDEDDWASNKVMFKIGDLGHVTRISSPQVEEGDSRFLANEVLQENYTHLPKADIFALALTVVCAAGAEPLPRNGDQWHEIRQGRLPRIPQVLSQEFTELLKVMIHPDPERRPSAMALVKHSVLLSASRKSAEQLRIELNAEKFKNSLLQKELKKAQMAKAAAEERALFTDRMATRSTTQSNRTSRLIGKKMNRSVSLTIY
T1 sequence (Q96SW2 whole entry): as the sequence (Q96SW2 whole entry) above
T1 sequence (Q16531 whole entry partner): as the sequence (Q16531 whole entry partner) above
T3 sequence (Q9UKT9 whole entry): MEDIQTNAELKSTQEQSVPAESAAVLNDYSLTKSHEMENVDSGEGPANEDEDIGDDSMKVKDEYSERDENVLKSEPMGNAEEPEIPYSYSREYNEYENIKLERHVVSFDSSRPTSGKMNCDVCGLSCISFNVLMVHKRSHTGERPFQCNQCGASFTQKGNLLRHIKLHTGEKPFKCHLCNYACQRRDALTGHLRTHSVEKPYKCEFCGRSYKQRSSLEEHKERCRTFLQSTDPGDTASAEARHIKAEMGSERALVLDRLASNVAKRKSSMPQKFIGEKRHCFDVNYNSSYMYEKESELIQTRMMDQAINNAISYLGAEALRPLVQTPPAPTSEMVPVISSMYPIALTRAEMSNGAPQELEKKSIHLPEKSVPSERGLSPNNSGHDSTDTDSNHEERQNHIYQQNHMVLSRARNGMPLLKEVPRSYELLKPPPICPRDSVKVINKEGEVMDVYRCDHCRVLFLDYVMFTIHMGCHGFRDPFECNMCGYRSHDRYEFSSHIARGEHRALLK
T3 sequence (Q96SW2 whole entry): as the sequence (Q96SW2 whole entry) above
T3 sequence (Q16531 whole entry partner): as the sequence (Q16531 whole entry partner) above
T7 sequence (Q13422 whole entry): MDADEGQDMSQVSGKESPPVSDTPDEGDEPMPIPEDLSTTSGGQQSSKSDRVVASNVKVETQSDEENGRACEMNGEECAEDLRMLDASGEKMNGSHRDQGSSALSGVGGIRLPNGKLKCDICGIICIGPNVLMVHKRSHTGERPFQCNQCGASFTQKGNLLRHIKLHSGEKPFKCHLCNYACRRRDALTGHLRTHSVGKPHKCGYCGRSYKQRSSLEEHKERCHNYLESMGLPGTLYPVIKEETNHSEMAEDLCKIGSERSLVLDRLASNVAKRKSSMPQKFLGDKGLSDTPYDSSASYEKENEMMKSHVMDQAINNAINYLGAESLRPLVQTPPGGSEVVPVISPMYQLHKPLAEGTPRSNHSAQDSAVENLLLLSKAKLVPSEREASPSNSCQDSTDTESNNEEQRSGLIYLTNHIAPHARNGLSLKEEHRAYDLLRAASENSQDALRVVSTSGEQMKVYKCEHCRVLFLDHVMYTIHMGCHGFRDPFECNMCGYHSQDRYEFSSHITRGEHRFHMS
T7 sequence (Q96SW2 whole entry): as the sequence (Q96SW2 whole entry) above
T7 sequence (Q16531 whole entry partner): as the sequence (Q16531 whole entry partner) above
T4 sequence (Q96SW2 whole entry): as the sequence (Q96SW2 whole entry) above

Compound | IC50 [1] | Weel substrate protein remaining % [2] | IC50 [3, 23] | IC50 [4] | IC50 [5, 24] | CK1a substrate protein remaining % [6] | IC50 [7] | IKZF3 substrate protein remaining % [8] | pIC50 [9] | IKZF2 substrate protein remaining % [10] | GSPT1 substrate protein remaining % [11] | IC50 [12] | IKZF 1 substrate protein remaining % [13] | IC50 [14] | inhibition at 0.01 µM [16] | inhibition at 0.5 µM [16] | inhibition at 0.01 µM [12] | inhibition at 0.5 µM [12] | inhibition at 0.01 µM [17] | inhibition at 0.5 µM [17] | further results
Cn1cc(C2=CCN(Cc3ccc4c(c3)C(=O)N(C3CCC(=O)NC3=O)C4=O)CC2)c2ccc(F)cc21 (stereo not shown) [GT-06636, 2-(2,6-dioxopiperidin-3-yl)-5-((4-(6-fluoro-1-methyl-1H-indol-3-yl)-3,6-dihydropyridin-1(2H)-yl)methyl)isoindoline-1,3-dione] | 10 to 50 nM | A (0% ≤ substrate protein remaining % ≤ 80%) | 10 to 50 nM | 100 to 500 nM | 500 to 1000 nM | A (0% ≤ substrate protein remaining % ≤ 80%) | 50 to 100 nM | A (0% ≤ substrate protein remaining % ≤ 80%) | 5.82 to 6.00 | A (0% ≤ substrate protein remaining % ≤ 80%) | A (0% ≤ substrate protein remaining % ≤ 80%) | 10 to 50 nM | A (0% ≤ substrate protein remaining % ≤ 80%) | – | – | – | – | – | – | – | –
O=C1CCC(N2C(=O)c3ccc(CN4CC=C(c5ncnc6sc(-c7ccccc7)cc56)CC4)cc3C2=O)C(=O)N1 (stereo not shown) [GT-06675, 2-(2,6-dioxopiperidin-3-yl)-5-((4-(6-phenylthieno[2,3-d]pyrimidin-4-yl)-3,6-dihydropyridin-1(2H)-yl)methyl)isoindoline-1,3-dione] | 50 to 100 nM | B (80%< substrate protein remaining %≤ 100%) | 10 to 50 nM | 100 to 500 nM | 100 to 500 nM | A (0% ≤ substrate protein remaining % ≤ 80%) | 50 to 100 nM | B (80%< substrate protein remaining %≤ 100%) | 6.00 to 6.30 | B (80%< substrate protein remaining %≤ 100%) | B (80%< substrate protein remaining %≤ 100%) | 10 to 50 nM | B (80%< substrate protein remaining %≤ 100%) | 500 to 1000 nM | – | – | – | – | – | – | IC50 [15, 25]: 500 to 1000 nM
O=C1CCC(N2C(=O)c3ccc(CN4CC=C(c5cccc(Cl)c5Cl)CC4)cc3C2=O)C(=O)N1 (stereo not shown) [GT-07842, 5-((4-(2,3-dichlorophenyl)-3,6-dihydropyridin-1(2H)-yl)methyl)-2-(2,6-dioxopiperidin-3-yl)isoindoline-1,3-dione] | – | B (80%< substrate protein remaining %≤ 100%) | – | – | – | B (80%< substrate protein remaining %≤ 100%) | – | A (0% ≤ substrate protein remaining % ≤ 80%) | – | A (0% ≤ substrate protein remaining % ≤ 80%) | A (0% ≤ substrate protein remaining % ≤ 80%) | – | A (0% ≤ substrate protein remaining % ≤ 80%) | – | 30 to 40% | 40 to 50% | 20 to 30% | 90 to 100% | 20 to 30% | 20 to 30% | inhibition at 0.01 µM [3]: 20 to 30%; inhibition at 0.5 µM [3]: 80 to 90%
O=C1CCC(N2C(=O)c3ccc(CN4CC(=C5CCOc6cc(F)ccc65)C4)cc3C2=O)C(=O)N1 (stereo not shown) [GT-08134, 2-(2,6-dioxopiperidin-3-yl)-5-((3-(7-fluorochroman-4-ylidene)azetidin-1-yl)methyl)isoindoline-1,3-dione] | – | B (80%< substrate protein remaining %≤ 100%) | – | – | – | B (80%< substrate protein remaining %≤ 100%) | – | A (0% ≤ substrate protein remaining % ≤ 80%) | – | A (0% ≤ substrate protein remaining % ≤ 80%) | A (0% ≤ substrate protein remaining % ≤ 80%) | – | A (0% ≤ substrate protein remaining % ≤ 80%) | – | 10 to 15% | 60 to 80% | 15 to 20% | 60 to 80% | 30 to 40% | 20 to 30% | –
Nc1cccc2c1CN(C1CCC(=O)NC1=O)C2=O (stereo not shown) [lenalidomide, reference compound] | – | – | – | – | – | – | – | – | – | – | – | – | – | – | 5 to 10% | 0 to 5% | 10 to 15% | 10 to 15% | 15 to 20% | 10 to 15% | inhibition at 0.01 µM [3]: 15 to 20%; inhibition at 0.5 µM [3]: 10 to 15%
Nc1cccc2c1C(=O)N(C1CCC(=O)NC1=O)C2=O (stereo not shown) [pomalidomide, reference compound] | > 10000 nM | – | > 10000 nM | 500 to 1000 nM | > 10000 nM | – | > 10000 nM | – | – | – | – | > 10000 nM | – | > 10000 nM | – | – | – | – | – | – | IC50 [18]: > 10000 nM; IC50 ([3]; MOLT-4, 96 h, read-out: inhibitory activity (IC50, nM) against tumor cells proliferation, Molt 4): > 10000 nM; IC50 [19]: > 10000 nM; IC50 [20]: > 10000 nM; IC50 ([5]; NCI-H1975, 96 h, read-out: inhibitory activity (IC50, nM) against tumor cells proliferation, H1975): > 10000 nM; IC50 ([14]; 96 h): > 10000 nM; IC50 ([15]; TMD8, 96 h, read-out: inhibitory activity (IC50, nM) against tumor cells proliferation, TMD8): 5000 to 10000 nM; IC50 [15, 25]: 5000 to 10000 nM; IC50 ([7]; 96 h): > 10000 nM; IC50 [21]: > 10000 nM; IC50 [22]: > 10000 nM; IC50 ([12]; 96 h): > 10000 nM; IC50 ([17]; MDA-MB-231, 96 h, read-out: inhibitory activity (IC50, nM) against tumor cells proliferation, MDA-MB-231): > 10000 nM

— patent EP4745137A1 (Gluetacs Therapeutics (Shanghai) Co., Ltd., priority 2023, dated 2025)
